# Experiments:
# [1] = tested on: Mixed hippocampal cultures; experiment: 6-OHDA neurotoxicity assay, MTT endpoint; type: cell-based, rat; settings: increasing concentrations, 1 h prior to 100 μM 6-OHDA for 18 h
# Description: Mixed hippocampal cultures were treated with increasing concentrations of fluconazole (panel A) or voriconazole (panel B), for 1 h prior to exposure to 100 μM 6-hydroxydopamine (6-OHDA) for 18 h. Cell survival was measured following 6-OHDA by MTT assay. Statistical significance was determined by ANOVA with Newman-Keuls pairwise post hoc comparisons. Statistical significance * indicates p<0.05, ** indicates p<0.01; *** indicates p<0.00
# (§1) Rat mixed hippocamal neuronal cultures are generated from freshly dissected rat hippocampi (embryonic day 18) in neurobasal media containing 5% fetal bovine serum and 2% B27 supplement. The cells are plated into 96 well plates at a density of 4×10^5 cells/mL and routinely used on days 11-14 following culturing. Cell viability is assessed with MTT [3-(4,5-dimethylthiazol-2-yl)-2,5-diphenyltetrazolium bromide] assay. The MTT assay is based on the ability of a mitochondrial dehydrogenase enzyme from viable cells to cleave the tetrazolium rings of the pale yellow MTT and form dark blue formazan crystals. See Mosmann (1983), J Immunol Methods, 65(1-2):55-63. These crystals are largely impermeable to cell membranes, and thus accumulate within healthy cells. The resultant formazan precipitates are solubilized with DMSO and read on a multiwell scanning spectrophotometer (ELISA reader). […]
# [2] = tested on: rat mixed hippocampal cultures; experiment: 3-NP neurotoxicity (neuroprotection) assay, MTT endpoint; type: cell-based
# Description: For example, a cell viability assay can be utilized to detect and/or measure the ability of a compound disclosed herein to protect neuronal and/or glial cells. In some embodiments, mixed hippocampal cell cultures are prepared as described in, e.g., Haughey et al. (1999), J Neurochem, 73(4):1363-1374, and Haughey et al (2004), J Neurosci, 24(1):257-268. Subsequently, the cultures are pretreated for one hour in the presence of a candidate neuroprotective agent and then incubated with a cytotoxic agent for about 18 hours. Examples of cytotoxic agents include, but are not limited to, oxidative stressors (e.g., 3-nitropropionic acid (3-NP) or H2O2),.excitatory amino acids (e.g., kainate), or neurotoxic proteins (e.g., Hiv Tat, or Aβ peptides). […] The level of protection (“percent protection”) provided by the test compound at a given test concentration in vitro can be expressed as: […]
# (§2) We evaluate the protective efficacy of a number of antifungal agents against many different neurotoxins, ranging from the chemotoxic 6-OHDA, NMDA, 3-nitropropionic acid (3-NP), and viral proteins such as Tat and gp120. Thus, we provide an in vitro neuroprotection assay using rat mixed hippocampal cultures, in which we evaluate the protective efficacy of neuroprotective compounds described herein. The oxidative stressor 3-NP is used to elicit toxicity in the rat hippocampal cultures to mimic the oxidative damage, reactive oxygen species production and ensuing neurodegeneration resulting from HIV infection. Another measure of neurotoxicity which results from HIV infection is evaluated by exposure of the hippocampal cultures to HIV-1 Tat (Li et al (2005), Neurotox Res, 8(1-2):119-134).
# (§3) Rat mixed hippocamal neuronal cultures are generated from freshly dissected rat hippocampi (embryonic day 18) in neurobasal media containing 5% fetal bovine serum and 2% B27 supplement. The cells are plated into 96 well plates at a density of 4×10^5 cells/mL and routinely used on days 11-14 following culturing. Cell viability is assessed with MTT [3-(4,5-dimethylthiazol-2-yl)-2,5-diphenyltetrazolium bromide] assay. The MTT assay is based on the ability of a mitochondrial dehydrogenase enzyme from viable cells to cleave the tetrazolium rings of the pale yellow MTT and form dark blue formazan crystals. See Mosmann (1983), J Immunol Methods, 65(1-2):55-63. These crystals are largely impermeable to cell membranes, and thus accumulate within healthy cells. The resultant formazan precipitates are solubilized with DMSO and read on a multiwell scanning spectrophotometer (ELISA reader). The number of surviving cells is directly proportional to the level of the formazan product created.
# Mixed hippocampal cultures are incubated with 3-NP (0.5-10 mM) for 18 hours in a 0.1% DMSO vehicle and then assessed for viability using an MTT assay.
# Neuroprotection vs 3NP is measured as a percentage of neural and/or glial cell that are protected from 3NP induced cell death after incubation with the neuroprotective agent (10 μM) for 60 minutes when compared to a 0.1% DMSO vehicle control.
# The neural and glial cells were preincubated with the neuroprotective compound for 1 hour followed by exposure to3 mM of the toxin for 18 hours.
# [3] = tested on: Mixed hippocampal cultures; experiment: ADP ribose toxicity assay, MTT endpoint; type: cell-based, rat; settings: increasing concentrations, 24 h prior to 1 mM ADP ribose for 18 h
# Description: Mixed hippocampal cultures were treated with increasing concentrations of fluconazole (panel A) or voriconazole (panel B), for 24 h prior to exposure to 1 mM ADP ribose for 18 h. Cell survival was measured following ADP ribose by MTT assay. Statistical significance was determined by ANOVA with Newman-Keuls pairwise post hoc comparisons. Statistical significance * indicates p<0.05, ** indicates p<0.01; *** indicates p<0.001.
# as §1
# [4] = tested on: Human cortical neuronal cultures; experiment: 3-NP toxicity assay in human neurons, MTT endpoint; type: cell-based; settings: increasing concentrations, 1 h prior to 3 mM 3-NP for 18 h
# Description: (§4) Human cortical neuronal cultures were treated with increasing concentrations of fluconazole for 1 h prior to exposure to 3 mM 3-NP (panel A) or 100 μM 6-OHDA (panel B) for 18 h. Cell survival was measured by MTT assay. Statistical significance was determined by ANOVA with Newman-Keuls pairwise post hoc comparisons. Statistical significance * indicates p<0.05, ** indicates p<0.01; *** indicates p<0.001.
# (§5) FIG. 9 illustrates the protection of human neuronal cultures from 3-NP and 6-OHDA with fluconazole (FIGS. 9A-9B, respectively). The neural and glial cells were preincubated with the neuroprotective compound for 1 hour followed by exposure to 3 mM 3-NP or 100 μM 6-OHDA for 18 hours.
# [5] = tested on: Mixed hippocampal cultures; experiment: NMDA excitotoxicity assay, MTT endpoint; type: cell-based, rat; settings: increasing concentrations, 1 h prior to 500 μM NMDA for 18 h
# Description: Mixed hippocampal cultures were treated with increasing concentrations of fluconazole (panel A) or voriconazole (panel B), for 1 h prior to exposure to 500 μM N-methyl D-aspartate (NMDA) for 18 h. Cell survival was measured following NMDA by MTT assay. Statistical significance was determined by ANOVA with Newman-Keuls pairwise post hoc comparisons. Statistical significance * indicates p<0.05, ** indicates p<0.01; *** indicates p<0.001.
# as §1
# [6] = tested on: Human cortical neuronal cultures; experiment: 6-OHDA toxicity assay in human neurons, MTT endpoint; type: cell-based; settings: increasing concentrations, 1 h prior to 100 μM 6-OHDA for 18 h
# Description: as §4, §5
# [7] = tested on: rat mixed hippocampal cultures; experiment: HIV-1 Tat neurotoxicity assay, MTT endpoint; type: cell-based; settings: increasing concentrations, 1 hour preincubation, 500 nM Tat1-72 for 18 hours
# Excerpt: as §2, §3
# The assay system is validated using two neuroprotective agents, GPI 1046 and Resveratrol. […] Cultures are preincubated with GPI 1046 or Resveratrol for one hour prior to an 18 hour exposure to 3 mM 3-NP. […] The same neuroprotective compounds are evaluated for efficacy against HIV-1 Tat protein toxicity using the same 1 hour preincubation protocol.
# The neural and glial cells were preincubated with the neuroprotective compound for 1 hour followed by exposure to 500 nM of Tat1-72 for 18 hours.
# [8] = 10 μM agent, 60 minutes incubation, 3 mM 3-NP, compared to 0.1% DMSO vehicle control
smiles,measurement,setting,value
"OC(Cn1cncn1)(Cn1cncn1)c1ccc(F)cc1F [FLUCONAZOLE, Fluconazole]",protection from 6-OHDA neurotoxicity (FIG. 7),[1],protect hippocampal neurons from 6-OHDA neurotoxicity
same,% Protection vs. 3-NP,[2]; [8],13.3%
same,Protection vs 3NP,[2]; [8],13.35%
same,protection from oxidative damage elicited by 3-NP (FIG. 4),"[2]; increasing concentrations, 1 h prior to 3 mM 3-NP for 18 h",protect hippocampal neurons from oxidative damage elicited by 3-NP
same,protection from toxicity elicited by ADP ribose (FIG. 8),[3],protect hippocampal neurons from toxicity elicited by ADP ribose
same,protection of human cortical neurons from 3-NP toxicity (FIG. 9A),[4],protects human cortical neurons
same,protection from excitotoxic lesions elicited by NMDA (FIG. 6),[5],protect hippocampal neurons from excitotoxic lesions elicited by NMDA
same,protection of human cortical neurons from 6-OHDA toxicity (FIG. 9B),[6],protects human cortical neurons
same,protection of hippocampal cultures from HIV-Tat toxicity (FIG. 5),[7],concentration dependent protection

# Reference: patent publication US20100298394A1, “ANTIFUNGAL AGENTS AS NEUROPROTECTANTS” (THE JOHNS HOPKINS UNIVERSITY, priority 2007, published 2010)
